The source of these data is BindingDB's records for doi:10.1074/jbc.271.44.27217 (Yamanouchi Pharmaceutical, 1996).

Structures are written as SMILES.

For this assay, the target named is T1, Neuropeptide Y receptor type 2 (Oryctolagus cuniculus, UniProt B6VRS5).
T1 sequence (B6VRS5 whole entry): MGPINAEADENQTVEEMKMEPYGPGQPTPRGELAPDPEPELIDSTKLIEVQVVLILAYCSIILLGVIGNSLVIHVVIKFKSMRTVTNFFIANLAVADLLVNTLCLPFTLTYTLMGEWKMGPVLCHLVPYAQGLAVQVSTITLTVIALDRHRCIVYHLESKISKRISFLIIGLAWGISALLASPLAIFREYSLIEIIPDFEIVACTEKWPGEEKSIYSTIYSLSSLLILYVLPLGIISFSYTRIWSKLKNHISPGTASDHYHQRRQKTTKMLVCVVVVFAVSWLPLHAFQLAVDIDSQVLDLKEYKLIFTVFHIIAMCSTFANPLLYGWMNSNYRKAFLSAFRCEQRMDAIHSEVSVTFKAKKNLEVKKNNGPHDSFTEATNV

`CC[C@H](C)[C@H](NC(=O)[C@H](Cc1ccc(O)cc1)NC(=O)[C@H](CCCNC(=N)N)NC(=O)[C@H](CCCNC(=N)N)NC(=O)[C@H](CC(C)C)NC(=O)[C@H](CC(=O)O)NC(=O)[C@H](C)NC(=O)[C@H](C)NC(=O)[C@H](Cc1ccc(O)cc1)NC(=O)[C@H](CCC(N)=O)NC(=O)[C@H](C)NC(=O)[C@H](CCSC)NC(=O)[C@H](CCC(N)=O)NC(=O)[C@H](CCC(=O)O)NC(=O)[C@@H]1CCCN1C(=O)[C@@H](NC(=O)[C@H](C)NC(=O)[C@H](CC(N)=O)NC(=O)[C@H](CC(=O)O)NC(=O)CNC(=O)[C@@H]1CCCN1C(=O)[C@H](Cc1ccc(O)cc1)NC(=O)[C@@H](NC(=O)[C@@H]1CCCN1C(=O)[C@H](CCC(=O)O)NC(=O)[C@H](CC(C)C)NC(=O)[C@@H]1CCCN1C(=O)[C@H](C)N)C(C)C)[C@@H](C)O)C(=O)N[C@@H](CC(N)=O)C(=O)N[C@@H](CCSC)C(=O)N[C@@H](CC(C)C)C(=O)N[C@H](C(=O)N[C@@H](CCCNC(=N)N)C(=O)N1CCC[C@H]1C(=O)N[C@@H](CCCNC(=N)N)C(=O)N[C@@H](Cc1ccc(O)cc1)C(N)=O)[C@@H](C)O` [CAS_59763-91-6] gave a Ki of 340 nM.

One may read the Ki as a measure of affinity in units of concentration, obtained from inhibition or displacement.
